Test results from patent publication US6825178B1, “Methods and products for treating pseudomonas infection” (The Brigham and Women's Hospital, Inc., priority 1996, dated 2004).
Marks after values point to notes of the source that are not given here.

Assays:
A549 cells = test: Inhibition of internalization of P. aeruginosa strain PAO1 into A549 cells; format: cell-based, human; conditions: 1 nM peptide
Experimental: (§1) WI-38 (human diploid lung cell line, ATCC. no. CCL-75) and A549 cells (human lung carcinoma cells, ATCC no. CCL-185) were obtained from the ATCC and grown according to their instructions.
(§2) Bacterial ingestion assay. Cells were released from monolayers in tissue culture flasks by 5 min. of incubation with trypsin-versene mixture (BioWhitaker, Walkersville, Md.), washed, counted and seeded into 96-well tissue culture plates at 10^5 cells/well in supplemented F-12 medium and incubated at 37° C. in 5% CO2. Fresh cultures of P. aeruginosa grown overnight at 37° C. on a tryptic soy agar plate were suspended in supplemented F-12 medium to prepare the bacterial inoculum. Then 10^6 colony forming units (cfu) of the bacterial inoculum were added per well of 10^5 epithelial cells. […] Three to 9 replicates were obtained per point, and analyzed using analysis of variance (ANOVA) and the Fisher PLSD statistic to determine pairwise differences.
(§3) Inhibition of ingestion in the presence of membranes isolated from C127 cells, monoclonal antibodies to extracellular domains of CFTR, or synthetic peptides corresponding to the first or fourth extracellular domains of CFTR was evaluated by adding these materials to the bacteria prior to adding them directly into wells for evaluation of bacterial uptake. […]

WI-38 cells = test: Inhibition of internalization of P. aeruginosa strain PAO1 into WI-38 cells; format: cell-based, human; conditions: strain PAO1, WI 38 cells, 1 nM peptide
Experimental: as §1, §2, §3

GRIIASYDPDNKEER (listed as Homo Sapiens) [First domain]
Mean cfu (standard deviation) of P. aeruginosa internalized (A549 cells): 3.2833 × 10^4 (4.32 × 10^3)^a cfu
Mean cfu (standard deviation) of P. aeruginosa internalized (WI-38 cells): 3.497 × 10^4 (3.751 × 10^3)^a cfu

LWLLGNTPLQDKGNSTHSRNNSYAVIITSTS (listed as Homo Sapiens) [Fourth domain, reference compound]
Mean cfu (standard deviation) of P. aeruginosa internalized (A549 cells): 8.7333 × 10^4 (1.1506 × 10^4) cfu
Mean cfu (standard deviation) of P. aeruginosa internalized (WI-38 cells): 7.3433 × 10^4 (9.124 × 10^3) cfu
